Measured values as given in patent publication US20180163056A1, “HYDROPHILIC CURABLE COMPOSITIONS” (MITSUI CHEMICALS, INC., priority 2013, published 2018).

Experiment: Measurement of solubility with respect to cyclohexane:toluene=5:1 (by weight)
Format: physicochemical
Conditions: 25° C., stirred 1 hour, 0.45 μm filter
Experimental: 1.0 g of hydrophilic compound SPA-K, namely, potassium 3-acryloyloxypropylsulfonate (or potassium 3-sulfopropylacrylate salt) as a constituent for the concentration-gradient films according to the invention was added to 10.0 g of a mixture solution including 8.3 g of cyclohexane and 1.7 g of toluene. The mixture was stirred at 25° C. for 1 hour and was filtered through a 0.45 μm membrane filter.
The filtrate was placed onto an evaporation dish, heated at 150° C. for 2 hours, and cooled to room temperature. The weight of the residue was measured.
Lastly, the solubility with respect to cyclohexane:toluene=5:1 (by weight) was calculated using the following equation.
Solubility (wt %)=Weight of residue (g)/{10.0 (g)+Weight of residue (g)}×100

SMILES: C=CC(=O)OCCCS(=O)(=O)[O-].[K+] [SPA-K, potassium 3-acryloyloxypropylsulfonate]
- Solubility with respect to cyclohexane:toluene=5:1 (by weight): < 1 wt %
